From patent publication US10544143B2, “4-azaindole compounds” (BRISTOL-MYERS SQUIBB COMPANY, priority 2017, dated 2020)

Experiments:
human TLR9 = human TLR9 (Homo sapiens (Human), UniProt Q9NR96); test: TLR9 inhibition reporter assay (HEK-Blue SEAP); conditions: read-out: TLR9 IC50; HEK-Blue cells overexpressing human TLR9, SEAP reporter, ODN2006 5 nM;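 note: SEAP driven by an IFN-β minimal promoter with NF-κB and AP-1 sites, read after 22 h, compounds dosed 0.05 nM–50 µM, inhibition scaled between agonist plus DMSO and reference-inhibitor wells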
human TLR8 = human TLR8 (Homo sapiens (Human), UniProt Q9NR97); test: TLR8 inhibition reporter assay (HEK-Blue SEAP); conditions: read-out: TLR8 IC50; HEK-Blue cells overexpressing human TLR8, SEAP reporter, R848 15.9 μM;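 note: SEAP driven by IFN-β minimal promoter carrying NF-κB and AP-1 sites, compounds dosed 0.05 nM to 50 µM for 22 h, inhibition scaled between agonist-plus-DMSO and reference-inhibitor wells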
human TLR7 = human TLR7 (Homo sapiens (Human), UniProt Q9NYK1); test: TLR7 inhibition reporter assay (HEK-Blue SEAP); format: cell-based; conditions: HEK-Blue cells overexpressing human TLR7, SEAP reporter, gardiquimod 7.5 μM
Chain of human TLR7 (Q9NYK1 27-1049): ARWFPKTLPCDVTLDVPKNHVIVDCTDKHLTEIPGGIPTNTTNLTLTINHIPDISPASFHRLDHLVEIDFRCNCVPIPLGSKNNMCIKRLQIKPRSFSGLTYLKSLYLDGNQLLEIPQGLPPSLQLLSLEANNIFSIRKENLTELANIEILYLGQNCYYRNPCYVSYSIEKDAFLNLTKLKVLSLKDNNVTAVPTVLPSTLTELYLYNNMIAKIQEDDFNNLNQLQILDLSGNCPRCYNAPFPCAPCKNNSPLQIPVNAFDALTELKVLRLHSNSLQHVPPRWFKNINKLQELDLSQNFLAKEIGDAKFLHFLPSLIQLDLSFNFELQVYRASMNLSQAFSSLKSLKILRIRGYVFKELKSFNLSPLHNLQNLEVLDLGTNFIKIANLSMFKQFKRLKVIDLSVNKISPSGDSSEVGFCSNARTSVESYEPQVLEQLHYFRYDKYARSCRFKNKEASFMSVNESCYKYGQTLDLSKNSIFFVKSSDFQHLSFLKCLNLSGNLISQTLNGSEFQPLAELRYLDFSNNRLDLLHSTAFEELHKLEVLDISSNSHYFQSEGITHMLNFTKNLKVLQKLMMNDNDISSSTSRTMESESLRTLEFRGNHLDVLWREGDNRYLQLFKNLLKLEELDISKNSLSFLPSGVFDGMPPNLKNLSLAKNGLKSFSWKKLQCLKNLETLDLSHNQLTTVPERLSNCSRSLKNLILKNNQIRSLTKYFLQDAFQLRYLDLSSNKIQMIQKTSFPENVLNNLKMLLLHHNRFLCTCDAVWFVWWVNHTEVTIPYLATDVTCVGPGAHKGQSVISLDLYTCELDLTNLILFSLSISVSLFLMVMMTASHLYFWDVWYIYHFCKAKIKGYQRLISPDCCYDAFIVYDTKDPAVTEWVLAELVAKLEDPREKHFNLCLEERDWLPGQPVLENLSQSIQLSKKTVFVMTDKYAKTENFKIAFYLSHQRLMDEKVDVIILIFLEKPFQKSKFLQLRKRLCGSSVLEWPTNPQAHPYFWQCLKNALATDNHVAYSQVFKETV

Chain of human TLR9 (Q9NR96 26-1032): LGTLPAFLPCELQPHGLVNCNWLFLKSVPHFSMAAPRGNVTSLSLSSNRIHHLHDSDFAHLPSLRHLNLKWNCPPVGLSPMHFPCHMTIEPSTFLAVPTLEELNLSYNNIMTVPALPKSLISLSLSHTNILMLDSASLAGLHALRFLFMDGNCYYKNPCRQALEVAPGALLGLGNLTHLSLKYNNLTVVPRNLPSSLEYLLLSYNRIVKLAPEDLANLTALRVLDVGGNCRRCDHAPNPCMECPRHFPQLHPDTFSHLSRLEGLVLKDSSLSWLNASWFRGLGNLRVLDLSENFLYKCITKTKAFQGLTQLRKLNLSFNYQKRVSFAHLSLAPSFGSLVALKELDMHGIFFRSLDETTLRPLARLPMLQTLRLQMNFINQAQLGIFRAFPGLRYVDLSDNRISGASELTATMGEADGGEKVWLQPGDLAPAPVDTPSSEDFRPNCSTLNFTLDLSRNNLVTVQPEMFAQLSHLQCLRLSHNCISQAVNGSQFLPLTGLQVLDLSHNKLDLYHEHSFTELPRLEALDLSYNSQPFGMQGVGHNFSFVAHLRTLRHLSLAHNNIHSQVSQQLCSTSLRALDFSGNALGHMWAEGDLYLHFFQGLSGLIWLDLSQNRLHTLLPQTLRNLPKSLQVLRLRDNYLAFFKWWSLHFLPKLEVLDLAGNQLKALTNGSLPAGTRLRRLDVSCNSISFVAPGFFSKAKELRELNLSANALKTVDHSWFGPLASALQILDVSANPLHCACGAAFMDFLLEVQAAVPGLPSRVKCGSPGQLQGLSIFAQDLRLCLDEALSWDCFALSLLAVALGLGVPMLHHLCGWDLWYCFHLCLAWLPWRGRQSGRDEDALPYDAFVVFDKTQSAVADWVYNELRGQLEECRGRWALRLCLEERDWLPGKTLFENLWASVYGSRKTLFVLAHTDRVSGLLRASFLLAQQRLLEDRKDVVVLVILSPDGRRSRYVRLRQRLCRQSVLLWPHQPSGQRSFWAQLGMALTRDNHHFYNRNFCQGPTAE
Chain of human TLR8 (Q9NR97 27-1041): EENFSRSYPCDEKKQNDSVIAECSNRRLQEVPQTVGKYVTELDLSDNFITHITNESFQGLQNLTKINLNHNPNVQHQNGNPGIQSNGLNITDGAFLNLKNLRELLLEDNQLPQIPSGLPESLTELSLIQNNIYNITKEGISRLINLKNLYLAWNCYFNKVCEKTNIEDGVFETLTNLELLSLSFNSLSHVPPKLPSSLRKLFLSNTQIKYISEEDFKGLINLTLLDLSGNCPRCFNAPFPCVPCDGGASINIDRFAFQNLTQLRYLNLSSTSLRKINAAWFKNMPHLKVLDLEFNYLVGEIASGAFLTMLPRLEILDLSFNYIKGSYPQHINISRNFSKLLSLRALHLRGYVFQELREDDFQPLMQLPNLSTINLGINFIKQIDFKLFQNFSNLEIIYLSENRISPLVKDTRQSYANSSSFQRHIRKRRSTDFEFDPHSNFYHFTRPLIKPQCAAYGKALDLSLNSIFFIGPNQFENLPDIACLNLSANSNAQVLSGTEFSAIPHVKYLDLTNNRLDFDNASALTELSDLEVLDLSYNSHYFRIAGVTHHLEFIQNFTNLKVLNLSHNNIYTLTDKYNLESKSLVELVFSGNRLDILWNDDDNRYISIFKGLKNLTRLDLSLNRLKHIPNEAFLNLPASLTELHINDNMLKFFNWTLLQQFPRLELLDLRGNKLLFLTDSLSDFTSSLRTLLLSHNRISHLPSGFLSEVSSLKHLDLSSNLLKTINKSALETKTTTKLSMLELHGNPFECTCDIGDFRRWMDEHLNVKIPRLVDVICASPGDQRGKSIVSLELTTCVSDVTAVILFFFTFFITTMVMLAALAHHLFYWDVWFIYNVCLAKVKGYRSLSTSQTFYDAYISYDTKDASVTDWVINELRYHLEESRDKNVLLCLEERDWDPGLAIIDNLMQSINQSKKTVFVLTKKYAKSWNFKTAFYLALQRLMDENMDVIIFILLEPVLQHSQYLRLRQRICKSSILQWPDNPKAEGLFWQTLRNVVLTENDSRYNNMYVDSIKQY

| IC50 (human TLR9) [nM] | IC50 (human TLR8) [nM] | IC50 (human TLR7) [nM] | SMILES |
| --- | --- | --- | --- |
| 1530 | 17 | 1.7 | Cc1c(-c2[nH]c3ccc(C4CCC(N(C)C(=O)CN(C)C)CC4)nc3c2C(C)C)cn2ncnc2c1C (stereo not drawn) [Example 396] |
| 2400 | 10 | 6.3 | Cc1c(-c2[nH]c3ccc(C4CCC(N(C)Cc5c[nH]nn5)CC4)nc3c2C(C)C)cn2ncnc2c1C (stereo not drawn) [Example 397] |
| 4120 | 17 | 3.8 | Cc1c(-c2[nH]c3ccc(C4CCC(N(C)CC(N)=O)CC4)nc3c2C(C)C)cn2ncnc2c1C (stereo not drawn) [Example 398] |
| 1550 | 2.9 | 0.74 | CNC(=O)CN(C)C1CCC(c2ccc3[nH]c(-c4cn5ncnc5c(C)c4C)c(C(C)C)c3n2)CC1 (stereo not drawn) [Example 400] |
| 5720 | 6.4 | 5.7 | Cc1c(-c2[nH]c3ccc(C4CCC(N(C)C5COC5)CC4)nc3c2C(C)C)cn2ncnc2c1C (stereo not drawn) [Example 401] |
| 5150 | 43 | 31 | Cc1ncc(CN(C)C2CCC(c3ccc4[nH]c(-c5cn6ncnc6c(C)c5C)c(C(C)C)c4n3)CC2)cn1 (stereo not drawn) [Example 402] |
| 4280 | 44 | 7.7 | CNC(=O)CN(C)C1CCC(c2ccc3[nH]c(-c4cn5ncnc5c(C)c4C)c(C(C)C)c3n2)CC1 (stereo not drawn) [Example 403] |
| 1540 | 9.3 | 3.8 | Cc1c(-c2[nH]c3ccc(C4CCC(N(C)C(=O)CN(C)C)CC4)nc3c2C(C)C)cn2ncnc2c1C (stereo not drawn) [Example 404] |
| 1420 | 2.5 | 3.6 | COc1ncc(CN(C)C2CCC(c3ccc4[nH]c(-c5cn6ncnc6c(C)c5C)c(C(C)C)c4n3)CC2)cn1 (stereo not drawn) [Example 405] |
| 1470 | 3 | 1.4 | Cc1c(-c2[nH]c3ccc(C4CCC(N(C)CC(N)=O)CC4)nc3c2C(C)C)cn2ncnc2c1C (stereo not drawn) [Example 406] |
| 2460 | 8.5 | 7.2 | Cc1c(-c2[nH]c3ccc(C4CCC(N5CCCC5)CC4)nc3c2C(C)C)cn2ncnc2c1C (stereo not drawn) [Example 407] |
| 6440 | 43 | 18 | Cc1c(-c2[nH]c3ccc(C4CCC(N(C)CC(=O)N(C)C)CC4)nc3c2C(C)C)cn2ncnc2c1C (stereo not drawn) [Example 408] |
| 550 | 1.6 | 1.7 | Cc1c(-c2[nH]c3ccc(C4CCC(NCCO)CC4)nc3c2C(C)C)cn2ncnc2c1C (stereo not drawn) [Example 409] |
| 4920 | 6.5 | 5 | Cc1c(-c2[nH]c3ccc(C4CCC(N(C)CC(=O)N(C)C)CC4)nc3c2C(C)C)cn2ncnc2c1C (stereo not drawn) [Example 410] |
| 2300 | 8 | 6.3 | CCN(CC)C1CCC(c2ccc3[nH]c(-c4cn5ncnc5c(C)c4C)c(C(C)C)c3n2)CC1 (stereo not drawn) [Example 411] |
| 727 | 2.1 | 2.2 | Cc1c(-c2[nH]c3ccc(C4CCC(NCc5c[nH]nn5)CC4)nc3c2C(C)C)cn2ncnc2c1C (stereo not drawn) [Example 412] |
| 4740 | 18 | […] | Cc1c(-c2[nH]c3ccc(C4CCC(NCc5cnco5)CC4)nc3c2C(C)C)cn2ncnc2c1C (stereo not drawn) [Example 413] |
| 1760 | 12 | 5.1 | Cc1cnc(CN(C)C2CCC(c3ccc4[nH]c(-c5cn6ncnc6c(C)c5C)c(C(C)C)c4n3)CC2)cn1 (stereo not drawn) [Example 414] |
| 1240 | 3.5 | 2.5 | Cc1cnc(CN(C)C2CCC(c3ccc4[nH]c(-c5cn6ncnc6c(C)c5C)c(C(C)C)c4n3)CC2)cn1 (stereo not drawn) [Example 415] |
| 1620 | 1.2 | […] | Cc1c(-c2[nH]c3ccc(C4CCC(NCc5cnco5)CC4)nc3c2C(C)C)cn2ncnc2c1C (stereo not drawn) [Example 416] |
| 1740 | 2.5 | 4.1 | Cc1c(-c2[nH]c3ccc(C4CCC(NCC5(S(C)(=O)=O)CC5)CC4)nc3c2C(C)C)cn2ncnc2c1C (stereo not drawn) [Example 419] |
| 3530 | 2.8 | 1.2 | CNC(=O)CN(C)C1CCC(c2ccc3[nH]c(-c4cn5ncnc5c(C)c4C)c(C(C)C)c3n2)CC1 (stereo not drawn) [Example 420] |
| 2060 | 1.8 | 1.6 | Cc1c(-c2[nH]c3ccc(C4CCC(NC5CC5)CC4)nc3c2C(C)C)cn2ncnc2c1C (stereo not drawn) [Example 421] |
| 6240 | 35 | 15 | CNC(=O)CN(C)C1CCC(c2ccc3[nH]c(-c4cn5ncnc5c(C)c4C)c(C(C)C)c3n2)CC1 (stereo not drawn) [Example 422] |
| > 50000 | 83 | 175 | Cc1c(-c2[nH]c3ccc(C4CCC(NCCS(=O)(=O)C(F)(F)F)CC4)nc3c2C(C)C)cn2ncnc2c1C (stereo not drawn) [Example 423] |
| 2920 | 0.5 | 0.87 | Cc1c(-c2[nH]c3ccc(C4CCC(N(C)CCS(C)(=O)=O)CC4)nc3c2C(C)C)cn2ncnc2c1C (stereo not drawn) [Example 425] |

| IC50 (human TLR9) [nM] | IC50 (human TLR8) [nM] | IC50 (human TLR7) [nM] | SMILES |
| --- | --- | --- | --- |
| 1400 | 2.6 | 2.5 | Cc1c(-c2[nH]c3ccc(C4CCC(NC5CC5)CC4)nc3c2C(C)C)cn2ncnc2c1C (stereo not drawn) [Example 426] |
| 4900 | 7.6 | 2.4 | Cc1c(-c2[nH]c3ccc(C4CCC(N(C)CCS(C)(=O)=O)CC4)nc3c2C(C)C)cn2ncnc2c1C (stereo not drawn) [Example 427] |
| 9860 | 6.4 | 7.4 | Cc1c(-c2[nH]c3ccc(C4CCC(N(CCC#N)C5CC5)CC4)nc3c2C(C)C)cn2ncnc2c1C (stereo not drawn) [Example 428] |
| 7000 | 5.2 | 3.4 | COCCNC1CCC(c2ccc3[nH]c(-c4cn5ncnc5c(C)c4C)c(C(C)C)c3n2)CC1 (stereo not drawn) [Example 429] |
| 4660 | 11 | 16 | COCCNC1CCC(c2ccc3[nH]c(-c4cn5ncnc5c(C)c4C)c(C(C)C)c3n2)CC1 (stereo not drawn) [Example 431] |
| 584 | 0.55 | 0.37 | Cc1c(-c2[nH]c3ccc(C4CCC(NCCC#N)CC4)nc3c2C(C)C)cn2ncnc2c1C (stereo not drawn) [Example 432] |
| > 50000 | 60 | 42 | Cc1c(-c2[nH]c3ccc(C4CCC(N(CCC#N)C5CC5)CC4)nc3c2C(C)C)cn2ncnc2c1C (stereo not drawn) [Example 433] |
| 7430 | 2.4 | 1.5 | Cc1c(-c2[nH]c3ccc(C4CCC(N5CC(C#N)C5)CC4)nc3c2C(C)C)cn2ncnc2c1C (stereo not drawn) [Example 434] |
| 24200 | 32 | 3.5 | CC(=O)N(C)C1CCC(c2ccc3[nH]c(-c4cn5ncnc5c(C)c4C)c(C(C)C)c3n2)CC1 (stereo not drawn) [Example 439] |
| > 50000 | 14 | 6.4 | CC(=O)N(C)C1CCC(c2ccc3[nH]c(-c4cn5ncnc5c(C)c4C)c(C(C)C)c3n2)CC1 (stereo not drawn) [Example 440] |
| 1660 | 0.63 | 0.79 | Cc1c(-c2[nH]c3ccc(C4CCC(N(CC#N)C5COC5)CC4)nc3c2C(C)C)cn2ncnc2c1C (stereo not drawn) [Example 441] |
| 18300 | 3.5 | 3.7 | Cc1c(-c2[nH]c3ccc(C4CCC(N5CCN(C)C(=O)C5)CC4)nc3c2C(C)C)cn2ncnc2c1C (stereo not drawn) [Example 442] |
| 39200 | 5.2 | 16 | Cc1c(-c2[nH]c3ccc(C4CCC(N(CCO)C5COC5)CC4)nc3c2C(C)C)cn2ncnc2c1C (stereo not drawn) [Example 444] |
| 4890 | 3.6 | 1.5 | Cc1c(-c2[nH]c3ccc(C4CCC(N5CC(S(C)(=O)=O)C5)CC4)nc3c2C(C)C)cn2ncnc2c1C (stereo not drawn) [Example 445] |
| 364 | 0.91 | 0.91 | Cc1c(-c2[nH]c3ccc(C4CCC(NCCS(N)(=O)=O)CC4)nc3c2C(C)C)cn2ncnc2c1C (stereo not drawn) [Example 446] |
| 1640 | 2.3 | 1.7 | Cc1c(-c2[nH]c3ccc(C4CCC(NCCS(N)(=O)=O)CC4)nc3c2C(C)C)cn2ncnc2c1C (stereo not drawn) [Example 447] |
| 7690 | 24 | 7.5 | Cc1c(-c2[nH]c3ccc(C4CCC(N5CC(S(C)(=O)=O)C5)CC4)nc3c2C(C)C)cn2ncnc2c1C (stereo not drawn) [Example 448] |
| 18000 | 165 | 323 | CNC(=O)CN(C1CCC(c2ccc3[nH]c(-c4cn5ncnc5c(C)c4C)c(C(C)C)c3n2)CC1)C1COC1 (stereo not drawn) [Example 449] |
| 1190 | 0.71 | 0.61 | Cc1c(-c2[nH]c3ccc(C4CCC(NCCS(C)(=O)=O)CC4)nc3c2C(C)C)cn2ncnc2c1C (stereo not drawn) [Example 450] |
| 1040 | 0.63 | 0.48 | Cc1c(-c2[nH]c3ccc(C4CCC(NC5CCOCC5)CC4)nc3c2C(C)C)cn2ncnc2c1C (stereo not drawn) [Example 451] |
| 3090 | 4.4 | 2.7 | Cc1c(-c2[nH]c3ccc(C4CCC(NCCS(C)(=O)=O)CC4)nc3c2C(C)C)cn2ncnc2c1C (stereo not drawn) [Example 452] |
| 1440 | 3.3 | 4 | Cc1c(-c2[nH]c3ccc(C4CCC(NC5CCOCC5)CC4)nc3c2C(C)C)cn2ncnc2c1C (stereo not drawn) [Example 453] |
| 2390 | 0.68 | 1.2 | Cc1c(-c2[nH]c3ccc(C4CCC(NCC(C)(C)S(C)(=O)=O)CC4)nc3c2C(C)C)cn2ncnc2c1C (stereo not drawn) [Example 454] |
| 9200 | 12 | 14 | Cc1c(-c2[nH]c3ccc(C4CCC(NCC(C)(C)S(C)(=O)=O)CC4)nc3c2C(C)C)cn2ncnc2c1C (stereo not drawn) [Example 455] |
| 7730 | 8.1 | 2.6 | Cc1c(-c2[nH]c3ccc(C4CCC(N(CC#N)CC(=O)N(C)C)CC4)nc3c2C(C)C)cn2ncnc2c1C (stereo not drawn) [Example 456] |
